From ChEMBL document CHEMBL3714766, “Tetrahydroisoquinoline compounds and their use as pyruvate dehydrogenase kinase inhibitors” (2015)

Target: Pyruvate dehydrogenase kinase (Homo sapiens, UniProt Q15119+Q15120+Q16654+Q15118)
Test: Binding affinity to pyruvate dehydrogenase kinase (unknown origin) by VER-00160364 probe based fluorescence polarization assay

SMILES | IC50 [nM]
Cc1c(Cl)nc(Cl)nc1-c1ccc2c(c1)CC[C@H](C)N2C(=O)c1ccc(O)cc1O | 100
COCCNc1ncc(C)c(-c2ccc3c(c2)CC[C@H](C)N3C(=O)c2ccc(O)cc2O)n1 | 100
Cc1cnc(NC2CCCC2)nc1-c1ccc2c(c1)CC[C@H](C)N2C(=O)c1ccc(O)cc1O | 1000
C[C@H]1CCc2cc(-c3nc4ccccc4nc3C(F)(F)F)ccc2N1C(=O)c1ccc(O)cc1O | 100
COc1ccc(-c2ccc3c(c2)CC[C@H](C)N3C(=O)c2ccc(O)cc2O)c(Cl)c1 | 1000
C[C@H]1CCc2cc(-c3ccc(N4CCCC4)nn3)ccc2N1C(=O)c1ccc(O)cc1O | 100
C[C@H]1CCc2cc(-c3ccnc(N)n3)ccc2N1C(=O)c1ccc(O)cc1O | 100
Cc1nccn1-c1ccc(-c2ccc3c(c2)CC[C@H](C)N3C(=O)c2ccc(O)cc2O)nn1 | 100
C[C@H]1CCc2cc(-c3nc(C(F)(F)F)nc4ccccc34)ccc2N1C(=O)c1ccc(O)cc1O | 1000
C[C@H]1CCc2cc(-c3cc4occc4cn3)ccc2N1C(=O)c1ccc(O)cc1O | 100
C[C@H]1CCc2cc(-c3nc(-c4ccsc4)nc4ccccc34)ccc2N1C(=O)c1ccc(O)cc1O | 1000
C[C@H]1CCc2cc(-c3nc4ccc(Cl)cc4cc3CO)ccc2N1C(=O)c1ccc(O)cc1O | 100
C[C@H]1CCc2cc(-c3cc4cncnc4[nH]3)ccc2N1C(=O)c1ccc(O)cc1O | 10
CNc1ccc(-c2ccc3c(c2)CC[C@H](C)N3C(=O)c2ccc(O)cc2O)c(C)n1 | 100
Cc1cncnc1-c1ccc2c(c1)CC[C@H](C)N2C(=O)c1ccc(O)cc1O | 100
Cc1cc(Cl)nnc1-c1ccc2c(c1)CC[C@H](C)N2C(=O)c1ccc(O)cc1O | 10
Cc1cnc(NCCN(C)C)nc1-c1ccc2c(c1)CC[C@H](C)N2C(=O)c1ccc(O)cc1O | 1000
Cc1nc(N(C)C)nc(-c2ccc3c(c2)CC[C@H](C)N3C(=O)c2ccc(O)cc2O)c1C | 1000
Cc1cc(-c2ccc3c(c2)CC[C@H](C)N3C(=O)c2ccc(O)cc2O)nnc1Cl | 100
C[C@H]1CCc2cc(-c3nncc4ccccc34)ccc2N1C(=O)c1ccc(O)cc1O | 100
C[C@H]1CCc2cc(-c3ncnc4ccc(Cl)cc34)ccc2N1C(=O)c1ccc(O)cc1O | 100
Cc1cc(S(=O)(=O)N2CCCC2)cnc1-c1ccc2c(c1)CC[C@H](C)N2C(=O)c1ccc(O)cc1O | 100

SMILES | IC50 [nM]
CCc1nccnc1-c1ccc2c(c1)CC[C@H](C)N2C(=O)c1ccc(O)cc1O | 100
C[C@H]1CCc2cc(-c3nc4cc(Cl)ccc4o3)ccc2N1C(=O)c1ccc(O)cc1O | 10000
CC(=O)Nc1ccc(-c2ccc3c(c2)CC[C@H](C)N3C(=O)c2ccc(O)cc2O)c(C)n1 | 100
C[C@H]1CCc2cc(-c3nccc4occc34)ccc2N1C(=O)c1ccc(O)cc1O | 1000
Cc1cc(S(=O)(=O)N(C)C)cnc1-c1ccc2c(c1)CC[C@H](C)N2C(=O)c1ccc(O)cc1O | 10
Cc1cc2cc(F)ccc2nc1-c1ccc2c(c1)CC[C@H](C)N2C(=O)c1ccc(O)cc1O | 1000
C[C@H]1CCc2cc(-c3ccc(OCCN4CCCC4)nn3)ccc2N1C(=O)c1ccc(O)cc1O | 1000
Cc1ccc(-c2ccc3c(c2)CC[C@H](C)N3C(=O)c2ccc(O)cc2O)c(Cl)c1 | 1000
C[C@H]1CCc2cc(-c3cc4nccnc4cn3)ccc2N1C(=O)c1ccc(O)cc1O | 100
Cc1ccc[n+]([O-])c1-c1ccc2c(c1)CC[C@H](C)N2C(=O)c1ccc(O)cc1O | 100
CCCc1cncnc1-c1ccc2c(c1)CC[C@H](C)N2C(=O)c1ccc(O)cc1O | 100
C[C@H]1CCc2cc(-c3ccc(N)nn3)ccc2N1C(=O)c1ccc(O)cc1O | 100
C[C@H]1CCc2cc(-c3nc(-c4ccccc4)nc4ccccc34)ccc2N1C(=O)c1ccc(O)cc1O | 1000
Cc1cc(-c2ccc3c(c2)CC[C@H](C)N3C(=O)c2ccc(O)cc2O)cnc1Cl | 1000
C[C@H]1CCc2cc(-c3ncccc3CO)ccc2N1C(=O)c1ccc(O)cc1O | 100
C[C@H]1CCc2cc(-c3cnc4ccccc4n3)ccc2N1C(=O)c1ccc(O)cc1O | 1000
Cc1cc(S(=O)(=O)NCc2ccccc2)cnc1-c1ccc2c(c1)CC[C@H](C)N2C(=O)c1ccc(O)cc1O | 10
CCOc1ccc2nc(-c3ccc4c(c3)CC[C@H](C)N4C(=O)c3ccc(O)cc3O)c(C)cc2c1 | 1000
C[C@H]1CCc2cc(-c3ccc(-n4ccnc4)nn3)ccc2N1C(=O)c1ccc(O)cc1O | 100
COc1cc(-c2ccc3c(c2)CC[C@H](C)N3C(=O)c2ccc(O)cc2O)cnc1OC | 100
C[C@H]1CCc2cc(-c3nc(C(N)=O)nc4ccccc34)ccc2N1C(=O)c1ccc(O)cc1O | 100
Cc1cnc(C)c(-c2ccc3c(c2)CC[C@H](C)N3C(=O)c2ccc(O)cc2O)n1 | 100

SMILES | IC50 [nM]
CCc1cc2ccccc2nc1-c1ccc2c(c1)CC[C@H](C)N2C(=O)c1ccc(O)cc1O | 1000
Cc1cn(-c2ccc(-c3ccc4c(c3)CC[C@H](C)N4C(=O)c3ccc(O)cc3O)nn2)cn1 | 100
CSc1nc2c(c(-c3ccc4c(c3)CC[C@H](C)N4C(=O)c3ccc(O)cc3O)n1)CCC2 | 1000
CCc1cnc(C)nc1-c1ccc2c(c1)CC[C@H](C)N2C(=O)c1ccc(O)cc1O | 100
CCOC(=O)c1nc(-c2ccc3c(c2)CC[C@H](C)N3C(=O)c2ccc(O)cc2O)c2ccccc2n1 | 100
Cc1c(-c2ccc3c(c2)CC[C@H](C)N3C(=O)c2ccc(O)cc2O)ccc2[nH]ncc12 | 1000
C[C@H]1CCc2cc(-c3ccc(-c4ccccc4)cn3)ccc2N1C(=O)c1ccc(O)cc1O | 10000
COc1ccccc1-c1ccc2c(c1)CC[C@H](C)N2C(=O)c1ccc(O)cc1O | 100
COc1ccc2nc(-c3ccc4c(c3)CC[C@H](C)N4C(=O)c3ccc(O)cc3O)c(C)cc2c1 | 100
CNc1nnc(-c2ccc3c(c2)CC[C@H](C)N3C(=O)c2ccc(O)cc2O)c2ccccc12 | 100
C[C@H]1CCc2cc(-c3ncncc3C#N)ccc2N1C(=O)c1ccc(O)cc1O | 100
CSc1nc(Cl)cc(-c2ccc3c(c2)CC[C@H](C)N3C(=O)c2ccc(O)cc2O)n1 | 1000
CC(=O)Nc1ccc(-c2ccc3c(c2)CC[C@H](C)N3C(=O)c2ccc(O)cc2O)c(C)c1 | 100
Cc1cc2cc(Cl)ccc2nc1-c1ccc2c(c1)CC[C@H](C)N2C(=O)c1ccc(O)cc1O | 1000
C[C@H]1CCc2cc(-c3cccc(C#N)c3)ccc2N1C(=O)c1ccc(O)cc1O | 1000
C[C@H]1CCc2cc(-c3ccncc3C(F)(F)F)ccc2N1C(=O)c1ccc(O)cc1O | 100
C[C@H]1CCc2cc(-c3ccc(-c4ccccc4Cl)cn3)ccc2N1C(=O)c1ccc(O)cc1O | 10000
NC(=O)COc1ccc2c(c1)CCCN2C(=O)c1ccc(O)cc1O | 1000
C[C@H]1CCc2cc(-c3nc4ccccc4cc3CO)ccc2N1C(=O)c1ccc(O)cc1O | 100
C[C@H]1CCc2cc(-c3ccccc3Cl)ccc2N1C(=O)c1ccc(O)cc1O | 1000
C[C@H]1CCc2cc(-c3nc(C(F)(F)F)ccc3C(F)(F)F)ccc2N1C(=O)c1ccc(O)cc1O | 1000
CCOC(=O)c1nc(C)nc(-c2ccc3c(c2)CC[C@H](C)N3C(=O)c2ccc(O)cc2O)c1C | 1000

SMILES | IC50 [nM]
Cc1nc(NS(C)(=O)=O)ccc1-c1ccc2c(c1)CC[C@H](C)N2C(=O)c1ccc(O)cc1O | 100
Cc1cc(S(=O)(=O)NCc2ccn(C)n2)cnc1-c1ccc2c(c1)CC[C@H](C)N2C(=O)c1ccc(O)cc1O | 100
Cc1ccc(C)c(-c2ccc3c(c2)CC[C@H](C)N3C(=O)c2ccc(O)cc2O)n1 | 100
Cc1cc(-c2ccc3c(c2)CC[C@H](C)N3C(=O)c2ccc(O)cc2O)cnc1N | 100
Cc1cc(S(=O)(=O)N2CCCCC2)cnc1-c1ccc2c(c1)CC[C@H](C)N2C(=O)c1ccc(O)cc1O | 10
Cc1cc(CNc2ccc(-c3ccc4c(c3)CC[C@H](C)N4C(=O)c3ccc(O)cc3O)c(C)n2)on1 | 100
C[C@H]1CCc2cc(-c3ccc(Cl)cc3Cl)ccc2N1C(=O)c1ccc(O)cc1O | 1000
COc1cc2ncnc(-c3ccc4c(c3)CC[C@H](C)N4C(=O)c3ccc(O)cc3O)c2cc1OC | 1000
CNc1nccc(-c2ccc3c(c2)CC[C@H](C)N3C(=O)c2ccc(O)cc2O)n1 | 100
Cc1cnc(OCCN(C)C)nc1-c1ccc2c(c1)CC[C@H](C)N2C(=O)c1ccc(O)cc1O | 100
COc1ccc(OC)c(-c2ccc3c(c2)CC[C@H](C)N3C(=O)c2ccc(O)cc2O)c1 | 1000
COc1cc(-c2ccc3c(c2)CC[C@H](C)N3C(=O)c2ccc(O)cc2O)ncn1 | 1000
C[C@H]1CCc2cc(-c3ccc(NC4CC4)nn3)ccc2N1C(=O)c1ccc(O)cc1O | 1000
Cc1nc(N)ccc1-c1ccc2c(c1)CC[C@H](C)N2C(=O)c1ccc(O)cc1O | 100
Cc1nc(-c2ccc3c(c2)CC[C@H](C)N3C(=O)c2ccc(O)cc2O)c2ccccc2n1 | 100
Cc1ncc(C)c(-c2ccc3c(c2)CC[C@H](C)N3C(=O)c2ccc(O)cc2O)n1 | 10
Cc1cc2cccc(C)c2nc1-c1ccc2c(c1)CC[C@H](C)N2C(=O)c1ccc(O)cc1O | 1000
C[C@H]1CCc2cc(-c3ccc(N4CCOCC4)nn3)ccc2N1C(=O)c1ccc(O)cc1O | 1000
Cc1cc(S(=O)(=O)NCCN(C)C)cnc1-c1ccc2c(c1)CC[C@H](C)N2C(=O)c1ccc(O)cc1O | 10
Cc1cc2ccc(F)cc2nc1-c1ccc2c(c1)CC[C@H](C)N2C(=O)c1ccc(O)cc1O | 100
C[C@H]1CCc2cc(-c3ccc(Cl)nc3)ccc2N1C(=O)c1ccc(O)cc1O | 1000
Cc1nccnc1-c1ccc2c(c1)CC[C@H](C)N2C(=O)c1ccc(O)cc1O | 100
